Laboratory results as given in patent US12384808B2, “Modulators of TNF-α activity” (Forward Therapeutics, Inc., priority 2022, dated 2025).

What follows are compounds tested against TNFα (Homo sapiens, UniProt P01375) (assay: TNFα Induced HEK Blue Cellular Assay). Details: not given.
TNFα, sequence (P01375 77-233 limits assumed): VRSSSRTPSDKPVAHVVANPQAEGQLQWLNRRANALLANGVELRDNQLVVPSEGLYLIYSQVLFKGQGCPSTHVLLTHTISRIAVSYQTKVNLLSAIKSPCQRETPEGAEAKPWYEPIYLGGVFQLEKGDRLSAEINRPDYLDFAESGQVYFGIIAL
Format: cell-based
Method in brief: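 IC50 fitted with a 4-parameter logistic model from % inhibition, normalised to DMSO controls with and without stimulation. Readout: QUANTI-Blue SEAP at 620 nm after 24 h, 37 °C exposure to TNFα (100 pg/ml final) and test compound at […]–0.5 nM final.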
With [2H]C([2H])([2H])N1C(=O)c2cccc(OC(F)F)c2[C@H]2C[C@@H]1c1nc3ccc(-c4ccc(CP(=O)(OC)OC)c(F)c4)cc3n12 [Example 136, dimethyl (4-((7R,14R)-1-(difluoromethoxy)-6-(methyl-d3)-5-oxo-5,6,7,14-tetrahydro-7,14-methanobenzo[f]benzo[4,5]imidazo[1,2-a][1,4]diazocin-11-yl)-2-fluorobenzyl)phosphonate] the IC50 was under 100 nM.

Same assay, conditions: HEK Blue TNFα reporter cells, TNFα 100 pg/ml, 24 hrs at 37° C., secreted alkaline phosphatase (QUANTI-Blue) read at 620 nm; read-out: IC50 value
CN1C(=O)c2cccc(OC(F)F)c2[C@H]2C[C@@H]1c1nc3cc(F)c(-c4ccc(P(C)(C)=O)c(F)c4)cc3n12 [Example 57, (1R,11R)-18-(difluoromethoxy)-5-[4-(dimethylphosphoryl)-3-fluorophenyl]-6-fluoro-12-methyl-2,9,12-triazapentacyclo[9.8.1.0^{2,10}.0^{3,8}.0^{14,19}]icosa-3(8),4,6,9,14(19),15,17-heptaen-13-one] was tested, and the IC50 was under 100 nM. CP(C)(=O)Cc1c(F)cc(-c2ccc3nc4n(c3c2)[C@@H]2C[C@H]4NC(=O)c3cccc(OC(F)F)c32)cc1F [Example 81, (7R,14R)-1-(difluoromethoxy)-11-(4-((dimethylphosphoryl)methyl)-3,5-difluorophenyl)-6,7-dihydro-7,14-methanobenzo[f]benzo[4,5]imidazo[1,2-a][1,4]diazocin-5(14H)-one] showed an IC50 of under 100 nM. With [2H]C([2H])([2H])N1C(=O)c2cccc(OC(F)F)c2[C@H]2C[C@@H]1c1nc3ccc(-c4ccc(C(C)(C)P(C)(C)=O)nc4)cc3n12 [Example 120, (7R,14R)-1-(difluoromethoxy)-11-(6-(2-(dimethylphosphoryl)propan-2-yl)pyridin-3-yl)-6-(methyl-d3)-6,7-dihydro-7,14-methanobenzo[f]benzo[4,5]imidazo[1,2-a][1,4]diazocin-5(14H)-one] the IC50 was under 100 nM. In the case of CN1C(=O)c2cccc(OC(F)F)c2[C@H]2C[C@@H]1c1nc3ccc(-c4ccc(CP(C)(C)=O)c(F)c4)cc3n12 [Example 79, (7R,14R)-1-(difluoromethoxy)-11-(4-((dimethylphosphoryl)methyl)-3-fluorophenyl)-6-methyl-6,7-dihydro-7,14-methanobenzo[f]benzo[4,5]imidazo[1,2-a][1,4]diazocin-5(14H)-one], the IC50 is reported as under 100 nM. In the case of CN1C(=O)c2cccc(OC(F)F)c2[C@H]2C[C@@H]1c1nc3ccc(-c4ccc(OCP(C)(C)=O)cc4)cc3n12 [Example 38, (1R,11R)-18-(difluoromethoxy)-5-{4-[(dimethylphosphoryl)methoxy]phenyl}-12-methyl-2,9,12-triazapentacyclo[9.8.1.0^{2,10}.0^{3,8}.0^{14,19}]icosa-3(8),4,6,9,14(19),15,17-heptaen-13-one], the IC50 is reported as under 100 nM. For [2H]C([2H])([2H])N1C(=O)c2cccc(OC(F)F)c2[C@H]2C[C@@H]1c1nc3ccc(-c4ccc(P(C)(C)=O)cc4F)cc3n12 [Example 53, (7R,14R)-1-(difluoromethoxy)-11-(4-(dimethylphosphoryl)-2-fluorophenyl)-6-(methyl-d3)-6,7-dihydro-7,14-methanobenzo[f]benzo[4,5]imidazo[1,2-a][1,4]diazocin-5(14H)-one], the IC50 was under 100 nM. [2H]C([2H])([2H])N1C(=O)c2cccc(OC(F)F)c2[C@H]2C[C@@H]1c1nc3ccc(-c4cc(F)c(P(C)(C)=O)c(OC)c4)cc3n12 [Example 129, (7R,14R)-1-(difluoromethoxy)-11-(4-(dimethylphosphoryl)-3-fluoro-5-methoxyphenyl)-6-(methyl-d3)-6,7-dihydro-7,14-methanobenzo[f]benzo[4,5]imidazo[1,2-a][1,4]diazocin-5(14H)-one] gave an IC50 of under 100 nM. With CN1C(=O)c2cccc(OC(F)F)c2[C@H]2C[C@@H]1c1nc3ccc(-c4cc(F)c(CP(C)(C)=O)c(F)c4)cc3n12 [Example 77, (7R,14R)-1-(difluoromethoxy)-11-(4-((dimethylphosphoryl)methyl)-3,5-difluorophenyl)-6-methyl-6,7-dihydro-7,14-methanobenzo[f]benzo[4,5]imidazo[1,2-a][1,4]diazocin-5(14H)-one] the IC50 was under 100 nM. In the case of CN(CP(C)(C)=O)c1ccc(-c2ccc3nc4n(c3c2)[C@@H]2C[C@H]4N(C)C(=O)c3cccc(OC(F)F)c32)cn1 [Example 30, (1R,11R)-18-(difluoromethoxy)-5-(6-{[(dimethylphosphoryl)methyl](methyl)amino}pyridin-3-yl)-12-methyl-2,9,12-triazapentacyclo[9.8.1.0^{2,10}.0^{3,8}.0^{14,19}]icosa-3(8),4,6,9,14(19),15,17-heptaen-13-one], the IC50 is reported as under 100 nM. CCP(=O)(CC)c1ccc(-c2ccc3nc4n(c3c2)[C@@H]2C[C@H]4NC(=O)c3cccc(OC(F)F)c32)cc1F [Example 51, (1R,11R)-5-[4-(diethylphosphoryl)-3-fluorophenyl]-18-(difluoromethoxy)-2,9,12-triazapentacyclo[9.8.1.0^{2,10}.0^{3,8}.0^{14,19}]icosa-3(8),4,6,9,14(19),15,17-heptaen-13-one] gave an IC50 of under 100 nM. For [2H]C([2H])([2H])N1C(=O)c2cccc(OC(F)F)c2[C@H]2C[C@@H]1c1nc3ccc(-c4cnc(P(C)(C)=O)c(C)c4)cc3n12 [Example 134, (7R,14R)-1-(difluoromethoxy)-11-(6-(dimethylphosphoryl)-5-methylpyridin-3-yl)-6-(methyl-d3)-6,7-dihydro-7,14-methanobenzo[f]benzo[4,5]imidazo[1,2-a][1,4]diazocin-5(14H)-one], the IC50 was under 100 nM. Work on [2H]C([2H])([2H])N1C(=O)c2cccc(OC(F)F)c2[C@H]2C[C@@H]1c1nc3ccc(-c4ccc(P(C)(C)=O)cc4C(F)(F)F)cc3n12 [Example 104, (7R,14R)-1-(difluoromethoxy)-11-(4-(dimethylphosphoryl)-2-(trifluoromethyl)phenyl)-6-(methyl-d3)-6,7-dihydro-7,14-methanobenzo[f]benzo[4,5]imidazo[1,2-a][1,4]diazocin-5(14H)-one] yielded an IC50 of 100 to 1000 nM. CP(C)(=O)Cc1cc(F)c(-c2ccc3nc4n(c3c2)[C@@H]2C[C@H]4NC(=O)c3cccc(OC(F)F)c32)cc1F [Example 82, (7R,14R)-1-(difluoromethoxy)-11-(4-((dimethylphosphoryl)methyl)-2,5-difluorophenyl)-6,7-dihydro-7,14-methanobenzo[f]benzo[4,5]imidazo[1,2-a][1,4]diazocin-5(14H)-one] was tested, and the IC50 was 100 to 1000 nM. Work on [2H]C([2H])([2H])N1C(=O)c2cccc(OC(F)F)c2[C@H]2C[C@@H]1c1nc3ccc(-c4cc(F)c(C(C)P(C)(C)=O)c(F)c4)cc3n12 (single isomer, unassigned) [Example 109, (7R,14R)-1-(difluoromethoxy)-11-(4-((R or S)-1-(dimethylphosphoryl)ethyl)-3,5-difluorophenyl)-6-(methyl-d3)-6,7-dihydro-7,14-methanobenzo[f]benzo[4,5]imidazo[1,2-a][1,4]diazocin-5(14H)-one] yielded an IC50 of under 100 nM. CP(C)(=O)c1ccc(-c2cc3c(cc2F)nc2n3[C@@H]3C[C@H]2NC(=O)c2cccc(OC(F)F)c23)cc1F [Example 66, (7R,14R)-1-(difluoromethoxy)-11-(4-(dimethylphosphoryl)-3-fluorophenyl)-10-fluoro-6,7-dihydro-7,14-methanobenzo[f]benzo[4,5]imidazo[1,2-a][1,4]diazocin-5(14H)-one] gave an IC50 of under 100 nM. Work on [2H]C([2H])([2H])N1C(=O)c2cccc(OC(F)F)c2[C@H]2C[C@@H]1c1nc3ccc(-c4ccc(OCP(C)(C)=O)nc4)cc3n12 [Example 15, (7R,14R)-1-(difluoromethoxy)-11-(6-((dimethylphosphoryl)methoxy)pyridin-3-yl)-6-(methyl-d3)-6,7-dihydro-7,14-methanobenzo[f]benzo[4,5]imidazo[1,2-a][1,4]diazocin-5(14H)-one] yielded an IC50 of under 100 nM. Compound [2H]C([2H])([2H])N1C(=O)c2cccc(OC(F)F)c2[C@H]2C[C@@H]1c1nc3ccc(-c4ccc(P(C)(C)=O)nc4F)cc3n12 [Example 92, (7R,14R)-1-(difluoromethoxy)-11-(6-(dimethylphosphoryl)-2-fluoropyridin-3-yl)-6-(methyl-d3)-6,7-dihydro-7,14-methanobenzo[f]benzo[4,5]imidazo[1,2-a][1,4]diazocin-5(14H)-one] has an IC50 of under 100 nM. [2H]C([2H])([2H])N1C(=O)c2cccc(OC(F)F)c2[C@H]2C[C@@H]1c1nc3ccc(-c4ccc(P(C)(C)=O)c(C(F)(F)F)c4)cc3n12 [Example 122, (7R,14R)-1-(difluoromethoxy)-11-(4-(dimethylphosphoryl)-3-(trifluoromethyl)phenyl)-6-(methyl-d3)-6,7-dihydro-7,14-methanobenzo[f]benzo[4,5]imidazo[1,2-a][1,4]diazocin-5(14H)-one] gave an IC50 of 100 to 1000 nM. Work on [2H]C([2H])([2H])N1C(=O)c2cccc(OC(F)F)c2[C@H]2C[C@@H]1c1nc3ccc(-c4ccc(C(O)P(=O)(CC)CC)cc4)cc3n12 (stereo partly drawn) [Example 101, (7R,14R)-11-(4-((diethylphosphoryl)(hydroxy)methyl)phenyl)-1-(difluoromethoxy)-6-(methyl-d3)-6,7-dihydro-7,14-methanobenzo[f]benzo[4,5]imidazo[1,2-a][1,4]diazocin-5(14H)-one] yielded an IC50 of under 100 nM.
